# Earlier results, collected in patent US7985768B2, “Compounds as cannabinoid receptor ligands” (priority 2006, dated 2011).
# What was measured:
# animal models of pain = details: models of acute thermal, persistent, inflammatory and neuropathic pain
# [1] = at fully efficacious doses
# [2] = test system: CB1 receptor knockout mice
# [3] = test system: CB2 receptor knockout mice
# [4] = test system: apolipoprotein E knockout mice
# microglial activation = details: in vitro
# mice = details: model for post-menopausal osteoporosis
# rat = rat formalin model of persistent pain
# rodent models of pain = details: neuropathic, incisional, chronic and acute inflammatory pain
compound,measurement,setting,value
CN1CCCCC1Cn1cc(C(=O)c2cc([N+](=O)[O-])ccc2I)c2ccccc21 (stereo not shown) [AM-1241],analgesic efficacy,animal models of pain,robust analgesic efficacy
same,CB1 receptor-mediated CNS side effects,[1],devoid of typical CB1 receptor-mediated CNS side effects
(−)-Δ^9-Tetrahydrocannabinol [Δ^9-THC],analgesic efficacy,[2],retains some analgesic efficacy
same,immunosuppressive effects,[3],absent
same,effect on progression of atherosclerotic lesions,[4]; low doses,slowed the progression of atherosclerotic lesions
SR144528,effect on the actions of JWH-133,microglial activation; antagonist against JWH-133,blocked
same,effect on osteoclast activity,osteoclast,inhibit osteoclast activity
same,effect on ovariectomy-induced bone loss,mice,reverse ovariectomy-induced bone loss
same,effect on the actions of THC on atherosclerotic lesions,[4]; antagonist against THC,inhibited
CCCCCCC(C)(C)c1cc(OC)c([C@@H]2C=C(CO)[C@@H]3C[C@H]2C3(C)C)c(OC)c1 [HU-308],antinociceptive response,rat,elicits an antinociceptive response
CCCC(C)(C)c1ccc2c(c1)OC(C)(C)[C@@H]1CC=C(C)C[C@@H]21 [JWH-133],effect on β-amyloid-induced microglial activation and neurotoxicity,microglial activation,abrogated
COc1ccc2c(c1)c(CCN1CCOCC1)c(C)n2C(=O)c1cccc(Cl)c1Cl [GW405833],efficacy in pain models,rodent models of pain,efficacious
same,CB1 receptor-mediated CNS side effects,[1],devoid of typical CB1 receptor-mediated CNS side effects
